Test results published in paper PMC8513058, “Synthesis and Evaluation of Novel 1,2,6-Thiadiazinone Kinase Inhibitors as Potent Inhibitors of Solid Tumors” (Molecules, 2021).

What was measured:
[1] = tested on: PANC-1 cells; assay: Cancer cell line viability screen (alamarBlue), PANC1; conditions: Homo sapiens, PANC-1, 72 h, read-out: IC50 PANC1
Procedure: (§1) This included pancreatic, bladder, prostate, breast, chordoma, and lung cancer cell lines while a skin fibroblast cell line was used as a toxicity control [33, 34, 35, 36].
(§2) DU145 and MCF-7 cells were cultured in MEM medium supplemented with 10% FBS and 1% penicillin/streptomycin. […] Cells were seeded in 384-well plates and were treated with test compound in quadruplicate 24 h after plating. Cell viability was assessed at 72 h using alamarBlue (ThermoFisher, Waltham, MA, USA). […] IC50 values were determined by nonlinear regression using GraphPad PrismTM software (GraphPad Software Inc., San Diego, CA, US).

[2] = tested on: WS-1 cell line; assay: Toxicity control viability screen (alamarBlue), WS-1 skin fibroblasts; conditions: for IC50: WS1, 72 h, read-out: IC50 WS-1
Procedure: as §1, §2

[3] = tested on: MCF-7 cells; assay: Cancer cell line viability screen (alamarBlue), MCF7; conditions: Homo sapiens, MCF7, 72 h, read-out: IC50 MCF7
Procedure: as §1, §2

[4] = tested on: DU145 cells; assay: Cancer cell line viability screen (alamarBlue), DU145; conditions: Homo sapiens, DU-145, 72 h, read-out: IC50 DU145
Procedure: as §1, §2

[5] = tested on: U-CH2 cells; assay: Cancer cell line viability screen (alamarBlue), UCH2; conditions: UCH2, 72 h, read-out: IC50 UCH2
Procedure: as §1
(§3) Cells were seeded in 384-well plates and were treated with test compound in quadruplicate 24 h after plating. Cell viability was assessed at 72 h using alamarBlue (ThermoFisher, Waltham, MA, USA). […] IC50 values were determined by nonlinear regression using GraphPad PrismTM software (GraphPad Software Inc., San Diego, CA, US).

[6] = tested on: U-CH1 cells; assay: Cancer cell line viability screen (alamarBlue), UCH1; conditions: UCH1, 72 h, read-out: IC50 UCH1
Procedure: as §1, §3

[7] = tested on: A-431 cells; assay: Cancer cell line viability screen (alamarBlue), A431; conditions: Homo sapiens, A-431, 72 h, read-out: IC50 A431
Procedure: as §1, §3

[8] = tested on: 5637 cells; assay: Cancer cell line viability screen (alamarBlue), 5637; conditions: 72 h, read-out: IC50 5637
Procedure: as §1, §2

Row | SMILES | IC50 [1] | melting point | IC50 [3] | IC50 [4] | IC50 [5] | IC50 [6] | IC50 [7] | IC50 [8] | IC50 [2] | IC50 WS-1 ([2]; skin fibroblast cell line, toxicity control, viability at 72 h, alamarBlue, average of 4 independent experiments)
1 | CN1CCN(c2nsnc(-c3ccnc4[nH]ccc34)c2=O)CC1 [Compound 20, 3-(4-Methylpiperazin-1-yl)-5-(1H-pyrrolo[2,3-b]pyridin-4-yl)-4H-1,2,6-thiadiazin-4-one] | > 100 µM | 195 to 196 °C | > 100 µM | > 100 µM | – | – | – | > 100 µM | – | –
2 | CN1CCN(c2nsnc(Nc3ccnc4[nH]ccc34)c2=O)CC1 [Compound 21, 5-(4-Methylpiperazin-1-yl)-3-[(1H-pyrrolo[2,3-b]pyridin-4-yl)amino]-4H-1,2,6-thiadiazin-4-one] | > 100 µM | 286 to 287 °C | > 100 µM | 51 µM | > 100 µM | 97 µM | > 100 µM | > 100 µM | > 100 µM | –
3 | CN1CCN(c2nsnc(Nc3ccc4[nH]ncc4c3)c2=O)CC1 [Compound 22, 3-[(1H-Indazol-5-yl)amino]-5-(4-methylpiperazin-1-yl)-4H-1,2,6-thiadiazin-4-one] | > 100 µM | 262 to 263 °C | 25 µM | 50 µM | > 100 µM | > 100 µM | > 100 µM | > 100 µM | 24 µM | –
4 | O=c1c(Nc2ccc3[nH]ncc3c2)nsnc1-c1cccc(O)c1 [Compound 23, 5-(3-Hydroxyphenyl)-3-[(1H-indazol-5-yl)amino]-4H-1,2,6-thiadiazin-4-one] | > 100 µM | 282 to 283 °C | 92 µM | 84 µM | > 100 µM | 71 µM | > 100 µM | > 100 µM | > 100 µM | –
5 | COc1cccc(-c2nsnc(Nc3ccc4[nH]ncc4c3)c2=O)c1 [Compound 25, 3-[(1H-Indazol-5-yl)amino]-5-(3-methoxyphenyl)-4H-1,2,6-thiadiazin-4-one] | > 100 µM | 220 to 221 °C | 38 µM | > 100 µM | 99 µM | 52 µM | > 100 µM | 13 µM | 71 µM | –

Further lines, with some results ahead:

Row | IC50 [1] | melting point | IC50 [3] | IC50 [4] | IC50 [5] | IC50 [6] | IC50 [7] | IC50 [8] | SMILES | IC50 [2] | IC50 WS-1 ([2]; skin fibroblast cell line, toxicity control, viability at 72 h, alamarBlue, average of 4 independent experiments)
6 | > 100 µM | 271 to 273 °C | > 100 µM | > 100 µM | > 100 µM | 58 µM | > 100 µM | 15 µM | CC(=O)c1cccc(Nc2nsnc(-c3ccnc4[nH]ccc34)c2=O)c1 [Compound 14, 3-[(3-Acetylphenyl)amino]-5-(1H-pyrrolo[2,3-b]pyridin-4-yl)-4H-1,2,6-thiadiazin-4-one] | 92 µM | –
7 | > 100 µM | 257 to 258 °C | > 100 µM | > 100 µM | > 100 µM | 67 µM | > 100 µM | 15 µM | COc1cccc(Nc2nsnc(-c3ccnc4[nH]ccc34)c2=O)c1 [Compound 15, 3-[(3-Methoxyphenyl)amino]-5-(1H-pyrrolo[2,3-b]pyridin-4-yl)-4H-1,2,6-thiadiazin-4-one] | > 100 µM | –
8 | > 100 µM | 304 to 305 °C | > 100 µM | > 100 µM | > 100 µM | > 100 µM | > 100 µM | 55 µM | Cc1ccc(O)cc1Nc1nsnc(-c2ccnc3[nH]ccc23)c1=O [Compound 18, 3-[(5-Hydroxy-2-methylphenyl)amino]-5-(1H-pyrrolo[2,3-b]pyridin-4-yl)-4H-1,2,6-thiadiazin-4-one] | > 100 µM | –
9 | 11 µM | 256 to 257 °C | 46 µM | 14 µM | > 100 µM | > 100 µM | > 100 µM | > 100 µM | O=c1c(-c2ccnc3[nH]ccc23)nsnc1N1CCOCC1 [Compound 19, 3-Morpholino-5-(1H-pyrrolo[2,3-b]pyridin-4-yl)-4H-1,2,6-thiadiazin-4-one] | > 100 µM | –
10 | 26 µM | 268 to 269 °C | 13 µM | 15 µM | > 100 µM | 67 µM | > 100 µM | > 100 µM | Cc1ccc(O)cc1-c1nsnc(Nc2ccc3[nH]ncc3c2)c1=O [Compound 24, 5-(5-Hydroxy-2-methylphenyl)-3-[(1H-indazol-5-yl)amino]-4H-1,2,6-thiadiazin-4-one] | > 100 µM | no toxicity
